Assay results taken from PubChem BioAssay AID1508591.

Conditions: rat; liver microsomes; pH 7.4; 15.0 min; 1.0 µM

Compound	half-life [min]
Cn1c(=O)c2c(-c3ccc(Br)cc3)n(CCc3ccccc3)cc2n(C)c1=O	1.23
Cc1ccc2c(c1)c(=O)c1ccccc1n2CCCC(=O)Nc1cc(Cl)ccc1C	3.79
COc1cc(C2c3cc(O)c(OC)cc3CC3C(=O)OCC32)ccc1O (stereo not drawn)	21.1
CCOc1ccc(/C=C/c2nc3ccccc3n2S(=O)(=O)c2ccc(Br)cc2)cc1	> 30
CN1Cc2c(cc(N3CCOCC3)nc2-c2ccccc2OC(F)(F)F)C1=O	> 30
O=[N+]([O-])c1cccc(CNc2ccc(S(=O)(=O)Nc3nccs3)cc2)c1O	> 30
COc1ccc(-n2c(C)c(C(C)=O)c3cc(OC(=O)COc4ccccc4)ccc32)cc1	10.4
CC(=O)Nc1ccc(N[S+](=O)([O-])c2cccc(NC(=O)c3[nH]c(C)c(C(C)=O)c3C)c2)cc1	> 30
N=c1c2ccccc2nnn1-c1ccc(C(F)(F)F)cc1	> 30
Cc1ccc(-c2cc(C(=O)NC3CCCCC3)c3ccccc3n2)cc1	9.42
CC[C@@H]1C(=O)N(C)c2cnc(Nc3ccc(C(=O)NC4CCN(C)CC4)cc3OC)nc2N1C1CCCC1	> 30
COc1cc2c(Nc3ccc(Br)cc3F)ncnc2cc1OCC1CCN(C)CC1	> 30
Cn1c(=O)c2c(nc(Cl)n2Cc2ccc(Cl)cc2)n(C)c1=O	> 30
CC(C)Oc1ccc(-c2csc(N3CCC(C(N)=O)CC3)n2)cc1	> 30
COc1ccc(Nc2nc(-c3ccncc3)nc3ccccc23)cc1F	9.7
COc1ccc(-n2nc(C3CCN(C(=O)C4CC4)CC3)[nH]c2=O)cc1	> 30
CCOC(=O)N1CCc2c(sc(NCc3sccc3C)c2C(=O)Nc2cc(Cl)ccc2OC)C1	9.8
CC(C)NC(=O)c1nc(-c2ccc(Cl)nc2)c2cnccn12	> 30
CCc1ccc(OC(C)C(=O)N2CCC(c3nc4ccccc4o3)CC2)cc1 (stereo not drawn)	1.32
O=C1CCCC2=C1C(c1[nH]ncc1Cl)N=C(Nc1nc3cc(F)ccc3o1)N2 (stereo not drawn)	17
COc1cc2c3cc1Oc1c(O)c(OC)cc4c1[C@@H](Cc1ccc(cc1)Oc1cc(ccc1O)C[C@H]3N(C)CC2)N(C)CC4	29.8
O=C1c2ccccc2-n2c1nc1ccccc1c2=O	21.3
Cc1cccc2nc(-c3cccnc3)c(Nc3ccc(C(C)C)cc3)n12	1
COc1ccccc1Nc1ccnc(N2CCN(C(=O)c3ccc(F)cc3)CC2)n1	11.2
Cc1ccc(-c2nc(NCC(=O)Nc3cccc(C(=O)O)c3)c3ccccc3n2)cc1	> 30
Cc1ccc(NC(=O)c2ccncc2NS(=O)(=O)c2ccc(C)cc2)cc1	2.9

Compound	half-life [min]
O=C(NC1CCCc2c1[nH]c1c(Cl)cccc21)c1ccc2c(c1)OCO2 (stereo not drawn)	12.8
O=C1NCc2ccc(-c3cc4c(ccn4Cc4cccnc4)c(C4=CCOCC4)n3)cc21	19.5
COc1cccc(Nc2nc(-c3ccncc3)nc3ccccc23)c1	4.3
CC(C)(O)CNc1nc(Nc2ccnc(C(F)(F)F)c2)nc(-c2cccc(C(F)(F)F)n2)n1	> 30
CC(=O)N1CCN(c2ccc(OCc3nn(C)c(C)c3-c3cccc4c(CCCOc5cc(C)c(Cl)c(C)c5)c(C(=O)O)n(Cc5cccnc5)c34)cc2)CC1	8.9
CN1CCN(C(c2ccccc2)c2ccccc2)CC1	2.56
Cn1cc(Nc2cnccc2C(=O)O)c2cccnc21	> 30
NC(=O)Nc1cc(-c2ccc(CN3CCOCC3)cc2)sc1C(N)=O	> 30
Cc1ccnc(NC(=S)N2CCN(c3cc(C(F)(F)F)cc(C(F)(F)F)c3)CC2)c1	> 30
OCc1ccc(-c2ccc(-c3ccc(CO)s3)o2)s1	6.18
COCCCNC(=O)c1cc2cc(S(=O)(=O)N(C)C)ccc2n1C	25
Cc1ccnc(C)c1C(=O)Nc1cccc([S+](=O)([O-])N(C)C)c1	> 30
CCCOc1ccc2nc(NC(=O)OC)[nH]c2c1	> 30
COc1ccc(-n2nc(C3CCCN(C(=O)Cc4ccc(F)cc4)C3)[nH]c2=O)cc1 (stereo not drawn)	8.48
Cc1cnc(SCc2ccccn2)nc1C1CCCN(C(=O)c2scc3c2CCCC3)C1 (stereo not drawn)	1.01
COc1cc(=O)n2c(c1C(=O)N(C)Cc1cscn1)CCN(C(=O)c1ccc(C)cc1C)CC2	> 30
Cc1ccc(S(=O)(=O)N(C)c2ccccc2C(=O)Nc2nc(-c3ccccc3)cs2)cc1	1.7
Cc1ccc(CNCc2cn[nH]c2-c2ccc(C)cc2)cc1	1.34
C[S+](=O)([O-])c1ccc(-c2nc(C(=O)N3CCOCC3)n3ccncc23)cc1	> 30
CC1=Nc2cc(C(=O)NC3CCCC3)ccc2Sc2ccc(C)cc21	3.31
Cc1cc(C)nc(NC(=S)N2CCN(c3cccc(C(F)(F)F)n3)CC2)c1	28
Cc1cccc(-n2cnc3cc(C(=O)N4CCCCCC4)ccc32)c1	2.9
COc1cc2c(cc1NC(=O)COc1ccc(Cl)cc1)oc1ccccc12	8.77
CCOc1ccc(CCNC(=O)c2cc3ccccc3n2Cc2ccc(Cl)c(F)c2)cc1OCC	1.7
Cn1c2ccccc2c2c3c(c4c5ccccc5n(CCC#N)c4c21)CNC3=O	4.29
CCc1ccc(C2Sc3ccccc3NC3=C2C(=O)c2ccccc23)cc1 (stereo not drawn)	1.81

Compound	half-life [min]
CCc1ccc2ncc(C(=O)c3ccc(C)c(C)c3)c(N3CCC(C(N)=O)CC3)c2c1	1.47
CCN1CCN(C(=O)c2cc(-c3ccc(F)cc3)c3nncn3n2)CC1	> 30
O=C1C2=C(Nc3ccccc3SC2c2ccco2)c2ccccc21 (stereo not drawn)	4.01
CCCCC(C)/C=C(C)/C=C(\C)C(=O)NC1=CC(O)(/C=C/C=C/C=C/C(=O)NC2=C(O)CCC2=O)C2OC2C1=O (stereo not drawn)	1.83
CC(=O)N1CCC(NC(=O)c2nc(-c3ccccc3)cc3[nH]ccc23)CC1	> 30
CC(=O)N1CCc2c(sc3c2c(=O)n(-c2ccccc2)c(=O)n3CC(=O)c2ccccc2)C1	> 30
CCOc1cccc(C(=O)Nc2nc3c(s2)CC(C(C)(C)C)CC3)c1 (stereo not drawn)	9.74
Cc1ccc(S(=O)(=O)Nc2cnccc2C(=O)Nc2cccc3ccccc23)cc1	5.6
COc1ccc(-n2nc(C3CCCN(C(=O)c4ccccc4)C3)[nH]c2=O)cc1 (stereo not drawn)	> 30
CN1C(=O)CN=C(c2ccc[nH]2)c2cc(Cl)ccc21	16
Fc1cnc(-c2ccccc2C(F)F)nc1NCC1CCN(c2cnccn2)CC1	3.4
O=C1Nc2ccccc2/C1=C/c1cccc(C(=O)O)c1	> 30
CN(C)c1cccc(-c2ncc(F)c(N3CCC(C(N)=O)CC3)n2)c1	2.08
COc1ccccc1NS(=O)(=O)c1cccc(NC(=O)c2[nH]c(C)c(C(C)=O)c2C)c1	4.7
CCOC(=O)N1CCN(Cc2nc3c(c(=O)n(C)c(=O)n3C)n2Cc2ccc(F)cc2)CC1	8.7
COc1ccc(CN2CCc3nc(N4CCN(c5ccc(F)cc5)CC4)ncc3C2)c(OC)c1OC	1.65
Cc1ccnc(NC(=O)C2CC(=O)N(c3n[nH]c4cc(Br)ccc34)C2)c1 (stereo not drawn)	> 30
Cc1ccc(S(=O)(=O)N2CCCc3cc(NS(=O)(=O)c4ccccc4)ccc32)cc1	1
NC(=O)C1CCN(c2nc(-c3cccs3)cs2)CC1	3.98
Cn1cc(S(=O)(=O)N2CCCCCC2)cc1C(=O)Nc1ccc(Cl)c(C(F)(F)F)c1	5.98
CCOC(=O)c1ccc(-n2c(C)cc(-c3nnc4n3CCCCC4)c2C)cc1	2.7
CC1CC(C)(C)N(C(=O)CN2C(=O)c3ccccc3C2=O)c2ccccc21 (stereo not drawn)	1.56
COc1ccc2[nH]c(S(=O)Cc3ncc(C)c(OC)c3C)nc2n1 (stereo not drawn)	19.2
Cc1ccc(S(=O)(=O)Nc2ccc(OC(F)(F)F)cc2C(=O)Nc2nc(-c3ccccc3)cs2)cc1	24
Cc1ccccc1C(=O)N1CCc2cc(-c3nc(NC(=O)Cc4ccc5c(c4)OCO5)sc3C)ccc21	15.5
CCN(CC)c1ccc(Nc2nc(Cl)ncc2Br)cc1	6.24

Compound	half-life [min]
O=C(Nc1ccccc1-c1cn2c(CN3CCNCC3)csc2n1)c1cnc2ccccc2n1	> 30
Nc1ccccc1OCCn1c(CCNC(=O)C2CCCCC2)nc2ccccc21	2.13
CCCCn1cc2c(c1-c1ccc(Br)cc1)c(=O)n(C)c(=O)n2C	7.68
CC(C)c1ccc(-n2ncc3c(=O)n(CC(=O)Nc4cc(F)ccc4Cl)cnc32)cc1	20
CC(=O)NCCNC[C@@H]1C=C(C)[C@H](Cc2nnc(-c3ccccc3)o2)C[C@H]1C(C)C	5.06
O=C(CCc1ccccc1)NC(c1cccs1)c1cc(Cl)c2cccnc2c1O (stereo not drawn)	2.14
CC1CCN(S(=O)(=O)c2ccc3c(c2)C(C)(C)C(=O)N3CC(=O)NCc2ccco2)CC1	1.8
COC(=O)[C@@]12OC[C@]34[C@H]([C@@H](O)[C@@H]1O)[C@@]1(C)CC(=O)C(O)=C(C)[C@@H]1C[C@H]3OC(=O)[C@H](OC(=O)/C=C(\C)C(C)C)[C@@H]24	10.1
NC(=O)C1CCN(c2nc(-c3ccccc3Cl)cs2)CC1	4.02
NC(=O)C1CCN(c2nc(-c3cccc(F)c3)cs2)CC1	1.95
CC(=O)c1c(C)[nH]c(C(=O)Nc2cccc([S+](=O)([O-])Nc3ccc(C#N)cc3)c2)c1C	> 30
O=C(NCC1Cn2cccc2CN1Cc1cccnc1)Nc1ccccc1 (stereo not drawn)	1.41
OCCOCCN1CCN(C(c2ccccc2)c2ccc(Cl)cc2)CC1 (stereo not drawn)	5.93
COc1ccc(-c2ccc(Nc3nc(-c4ccncc4)nc4ccccc34)cc2F)cc1F	11
CCOC(=O)c1ccc(NC(=O)CSc2nc3c(cc2C#N)N2CCC3CC2)cc1	4.26
COc1cccc(C(=O)NCCSc2c(-c3ccc(F)cc3)[nH]c3ccccc23)c1OC	1.26
CCC(Sc1nc2ccccc2c2nc(CCc3c(C)n[nH]c3C)nn12)C(=O)Nc1ccc(F)cc1 (stereo not drawn)	4.01
O=S(=O)(Nc1ccc2ccccc2c1)c1ccc(NCc2ccc(Br)cc2O)cc1	15
Clc1ccccc1CSc1nc2ncc(Br)cc2[nH]1	6.5
COc1ccc2[nH]c3c(C)c4ccncc4c(C)c3c2c1	> 30
CC1(C)C(=O)NC2=C1C(=O)C(=O)c1ccccc12	> 30
Cc1cc2c(-c3cccc(O)c3)nc(-c3c(C)noc3C)cc2[nH]1	24.2
CC(=O)NC(c1cccs1)c1cc(Br)c2cccnc2c1O (stereo not drawn)	5.21
CN1C[C@@H]2C[C@H]1CN2c1cc2c(cc1F)c(=O)c(C(=O)O)cn2C1CC1	> 30
Cc1ccc(S(=O)(=O)NC2CCCCC2)cc1	1
